Test results as given in patent US8758816B2, “Compositions comprising azelastine and methods of use thereof” (priority 2004, dated 2014).

How the values were obtained:
[1] = system: patients with seasonal allergic rhinitis (SAR); assay: MP 428 study: Adult Rhinoconjunctivitis Quality of Life Questionnaire outcomes, change from baseline; format: in vivo, human; details: Day 14/ET; Intent-to-Treat Population
[2] = system: patients with seasonal allergic rhinitis (SAR); assay: MP 428 study: 14.3.5 Vital Sign Assessments, Safety Population
[3] = Day 14, Patients of Age 12 to 17
[4] = Day 14, Patients of Age 18 and Beyond
[5] = Day 14, baseline at Screening, Patients of Age 12 to 17
[6] = Day 14, baseline at Screening, Patients of Age 18 and Beyond
[7] = Day 14, baseline at Screening, Safety Population
[8] = Screening, Patients of Age 12 to 17
[9] = Screening, Patients of Age 18 and Beyond

CCC(=O)O[C@]1(C(=O)SCF)[C@H](C)C[C@H]2[C@@H]3C[C@H](F)C4=CC(=O)C=C[C@]4(C)[C@@]3(F)[C@@H](O)C[C@@]21C [Fluticasone, fluticasone propionate]
RQLQ Change From Baseline in Activity, LS Mean [1]: −1.52
RQLQ Change From Baseline in Activity, Mean [1]: −1.50
RQLQ Change From Baseline in Activity, Median [1]: −1.33
RQLQ Change From Baseline in Emotional, LS Mean [1]: −1.42
RQLQ Change From Baseline in Emotional, Mean [1]: −1.50
RQLQ Change From Baseline in Emotional, Median [1]: −1.25
RQLQ Change From Baseline in Eye Symptoms, LS Mean [1]: −1.51
RQLQ Change From Baseline in Eye Symptoms, Mean [1]: −1.53
RQLQ Change From Baseline in Eye Symptoms, Median [1]: −1.75
RQLQ Change From Baseline in Nasal Symptoms, LS Mean [1]: −1.72
RQLQ Change From Baseline in Nasal Symptoms, Mean [1]: −1.74
RQLQ Change From Baseline in Nasal Symptoms, Median [1]: −1.50
RQLQ Change From Baseline in Non-nose/eye Symptoms, LS Mean [1]: −1.19
RQLQ Change From Baseline in Non-nose/eye Symptoms, Mean [1]: −1.23
RQLQ Change From Baseline in Non-nose/eye Symptoms, Median [1]: −1.14
RQLQ Change From Baseline in Overall Score, LS Mean [1]: −1.47
RQLQ Change From Baseline in Overall Score, Mean [1]: −1.49
RQLQ Change From Baseline in Overall Score, Median [1]: −1.37
RQLQ Change From Baseline in Practical Problems, LS Mean [1]: −1.74
RQLQ Change From Baseline in Practical Problems, Mean [1]: −1.76
RQLQ Change From Baseline in Practical Problems, Median [1]: −1.67
RQLQ Change From Baseline in Sleep, LS Mean [1]: −1.23
RQLQ Change From Baseline in Sleep, Mean [1]: −1.26
RQLQ Change From Baseline in Sleep, Median [1]: −1.33
Diastolic Blood Pressure, Actual, Mean ([2]; Day 1, Safety Population): 74.0 mmHg
Diastolic Blood Pressure, Actual, Median ([2]; Day 1, Safety Population): 76.0 mmHg
Diastolic Blood Pressure, Actual, Min-Max ([2]; Day 1, Safety Population): 41-89 mmHg
Pulse Rate, Actual, Mean ([2]; Day 1, Safety Population): 75.0 bpm
Pulse Rate, Actual, Median ([2]; Day 1, Safety Population): 75.0 bpm
Pulse Rate, Actual, Min-Max ([2]; Day 1, Safety Population): 57-92 bpm
Respiration, Actual, Mean ([2]; Day 1, Safety Population): 15.8 bpm
Respiration, Actual, Median ([2]; Day 1, Safety Population): 16.0 bpm
Respiration, Actual, Min-Max ([2]; Day 1, Safety Population): 12-18 bpm
Systolic Blood Pressure, Actual, Mean ([2]; Day 1, Safety Population): 117.9 mmHg
Systolic Blood Pressure, Actual, Median ([2]; Day 1, Safety Population): 118.5 mmHg
Systolic Blood Pressure, Actual, Min-Max ([2]; Day 1, Safety Population): 93-142 mmHg
Temperature, Actual, Mean ([2]; Day 1, Safety Population): 97.89 ° F.
Temperature, Actual, Median ([2]; Day 1, Safety Population): 97.85 ° F.
Temperature, Actual, Min-Max ([2]; Day 1, Safety Population): 97.0-99.8 ° F.
Diastolic Blood Pressure, Actual, Mean ([2]; Day 7, Safety Population): 72.7 mmHg
Diastolic Blood Pressure, Actual, Median ([2]; Day 7, Safety Population): 74.0 mmHg
Diastolic Blood Pressure, Actual, Min-Max ([2]; Day 7, Safety Population): 58-86 mmHg
Diastolic Blood Pressure, Change from baseline, Mean ([2]; Day 7, Safety Population): −1.5 mmHg
Diastolic Blood Pressure, Change from baseline, Median ([2]; Day 7, Safety Population): −1.5 mmHg
Diastolic Blood Pressure, Change from baseline, Min-Max ([2]; Day 7, Safety Population): −15-19 mmHg
Pulse Rate, Actual, Mean ([2]; Day 7, Safety Population): 75.5 bpm
Pulse Rate, Actual, Median ([2]; Day 7, Safety Population): 74.0 bpm
Pulse Rate, Actual, Min-Max ([2]; Day 7, Safety Population): 52-102 bpm
Pulse Rate, Change from baseline, Mean ([2]; Day 7, Safety Population): 0.5 bpm
Pulse Rate, Change from baseline, Median ([2]; Day 7, Safety Population): −2.0 bpm
Pulse Rate, Change from baseline, Min-Max ([2]; Day 7, Safety Population): −29-38 bpm
Respiration, Actual, Mean ([2]; Day 7, Safety Population): 16.0 bpm
Respiration, Actual, Median ([2]; Day 7, Safety Population): 16.0 bpm
Respiration, Actual, Min-Max ([2]; Day 7, Safety Population): 12-20 bpm
Respiration, Change from baseline, Mean ([2]; Day 7, Safety Population): 0.2 bpm
Respiration, Change from baseline, Median ([2]; Day 7, Safety Population): 0.0 bpm
Respiration, Change from baseline, Min-Max ([2]; Day 7, Safety Population): −4-4 bpm
Systolic Blood Pressure, Actual, Mean ([2]; Day 7, Safety Population): 116.7 mmHg
Systolic Blood Pressure, Actual, Median ([2]; Day 7, Safety Population): 116.0 mmHg
Systolic Blood Pressure, Actual, Min-Max ([2]; Day 7, Safety Population): 95-142 mmHg
Systolic Blood Pressure, Change from baseline, Mean ([2]; Day 7, Safety Population): −1.4 mmHg
Systolic Blood Pressure, Change from baseline, Median ([2]; Day 7, Safety Population): −0.5 mmHg
Systolic Blood Pressure, Change from baseline, Min-Max ([2]; Day 7, Safety Population): −21-15 mmHg
Temperature, Actual, Mean ([2]; Day 7, Safety Population): 97.90 ° F.
Temperature, Actual, Median ([2]; Day 7, Safety Population): 97.95 ° F.
Temperature, Actual, Min-Max ([2]; Day 7, Safety Population): 96.0-98.9 ° F.
Temperature, Change from baseline, Mean ([2]; Day 7, Safety Population): −0.03 ° F.
Temperature, Change from baseline, Median ([2]; Day 7, Safety Population): 0.00 ° F.
Temperature, Change from baseline, Min-Max ([2]; Day 7, Safety Population): −1.8-1.8 ° F.
Body Weight for Patients of Age 12 to 17, Actual, Mean [2, 3]: 135.8 lb
Body Weight for Patients of Age 12 to 17, Actual, Median [2, 3]: 121.5 lb
Body Weight for Patients of Age 12 to 17, Actual, Min-Max [2, 3]: 87-197 lb
Body Weight for Patients of Age 18 and Beyond, Actual, Mean [2, 4]: 178.2 lb
Body Weight for Patients of Age 18 and Beyond, Actual, Median [2, 4]: 172.0 lb
Body Weight for Patients of Age 18 and Beyond, Actual, Min-Max [2, 4]: 115-265 lb
Body Weight, Actual, Mean ([2]; Day 14, Safety Population): 173.0 lb
Body Weight, Actual, Median ([2]; Day 14, Safety Population): 168.0 lb
Body Weight, Actual, Min-Max ([2]; Day 14, Safety Population): 87-265 lb
Diastolic Blood Pressure, Actual, Mean ([2]; Day 14, Safety Population): 73.6 mmHg
Diastolic Blood Pressure, Actual, Median ([2]; Day 14, Safety Population): 74.0 mmHg
Diastolic Blood Pressure, Actual, Min-Max ([2]; Day 14, Safety Population): 54-90 mmHg
Diastolic Blood Pressure, Change from baseline, Mean ([2]; Day 14, Safety Population): −0.4 mmHg
Diastolic Blood Pressure, Change from baseline, Median ([2]; Day 14, Safety Population): 0.0 mmHg
Diastolic Blood Pressure, Change from baseline, Min-Max ([2]; Day 14, Safety Population): −24-22 mmHg
Pulse Rate, Actual, Mean ([2]; Day 14, Safety Population): 75.3 bpm
Pulse Rate, Actual, Median ([2]; Day 14, Safety Population): 74.0 bpm
Pulse Rate, Actual, Min-Max ([2]; Day 14, Safety Population): 53-95 bpm
Pulse Rate, Change from baseline, Mean ([2]; Day 14, Safety Population): 0.3 bpm
Pulse Rate, Change from baseline, Median ([2]; Day 14, Safety Population): 1.0 bpm
Pulse Rate, Change from baseline, Min-Max ([2]; Day 14, Safety Population): −22-23 bpm
Respiration, Actual, Mean ([2]; Day 14, Safety Population): 15.8 bpm
Respiration, Actual, Median ([2]; Day 14, Safety Population): 16.0 bpm
Respiration, Actual, Min-Max ([2]; Day 14, Safety Population): 12-20 bpm
Respiration, Change from baseline, Mean ([2]; Day 14, Safety Population): 0.0 bpm
Respiration, Change from baseline, Median ([2]; Day 14, Safety Population): 0.0 bpm
Respiration, Change from baseline, Min-Max ([2]; Day 14, Safety Population): −4-4 bpm
Systolic Blood Pressure, Actual, Mean ([2]; Day 14, Safety Population): 118.9 mmHg
Systolic Blood Pressure, Actual, Median ([2]; Day 14, Safety Population): 117.0 mmHg
Systolic Blood Pressure, Actual, Min-Max ([2]; Day 14, Safety Population): 98-170 mmHg
Systolic Blood Pressure, Change from baseline, Mean ([2]; Day 14, Safety Population): 1.0 mmHg
Systolic Blood Pressure, Change from baseline, Median ([2]; Day 14, Safety Population): 1.5 mmHg
Systolic Blood Pressure, Change from baseline, Min-Max ([2]; Day 14, Safety Population): −20-40 mmHg
Temperature, Actual, Mean ([2]; Day 14, Safety Population): 97.86 ° F.
Temperature, Actual, Median ([2]; Day 14, Safety Population): 97.90 ° F.
Temperature, Actual, Min-Max ([2]; Day 14, Safety Population): 96.2-99.1 ° F.
Temperature, Change from baseline, Mean ([2]; Day 14, Safety Population): −0.03 ° F.
Temperature, Change from baseline, Median ([2]; Day 14, Safety Population): 0.10 ° F.
Temperature, Change from baseline, Min-Max ([2]; Day 14, Safety Population): −1.6-2.0 ° F.
Body Weight for Patients of Age 12 to 17, Change from baseline, Mean [2, 5]: −0.5 lb
Body Weight for Patients of Age 12 to 17, Change from baseline, Median [2, 5]: −0.5 lb
Body Weight for Patients of Age 12 to 17, Change from baseline, Min-Max [2, 5]: −2-2 lb
Body Weight for Patients of Age 18 and Beyond, Change from baseline, Mean [2, 6]: −0.5 lb
Body Weight for Patients of Age 18 and Beyond, Change from baseline, Median [2, 6]: 0.0 lb
Body Weight for Patients of Age 18 and Beyond, Change from baseline, Min-Max [2, 6]: −6-7 lb
Body Weight, Change from baseline, Mean [2, 7]: −0.5 lb
Body Weight, Change from baseline, Median [2, 7]: 0.0 lb
Body Weight, Change from baseline, Min-Max [2, 7]: −6-7 lb
Body Weight for Patients of Age 12 to 17, Actual, Mean [2, 8]: 136.3 lb
Body Weight for Patients of Age 12 to 17, Actual, Median [2, 8]: 122.5 lb
Body Weight for Patients of Age 12 to 17, Actual, Min-Max [2, 8]: 85-199 lb
Body Weight for Patients of Age 18 and Beyond, Actual, Mean [2, 9]: 177.9 lb
Body Weight for Patients of Age 18 and Beyond, Actual, Median [2, 9]: 169.5 lb
Body Weight for Patients of Age 18 and Beyond, Actual, Min-Max [2, 9]: 117-269 lb
Body Weight, Actual, Mean ([2]; Screening, Safety Population): 172.9 lb
Body Weight, Actual, Median ([2]; Screening, Safety Population): 168.5 lb
Body Weight, Actual, Min-Max ([2]; Screening, Safety Population): 85-269 lb
Diastolic Blood Pressure, Actual, Mean ([2]; Screening, Safety Population): 75.6 mmHg
Diastolic Blood Pressure, Actual, Median ([2]; Screening, Safety Population): 78.0 mmHg
Diastolic Blood Pressure, Actual, Min-Max ([2]; Screening, Safety Population): 50-95 mmHg
Pulse Rate, Actual, Mean ([2]; Screening, Safety Population): 75.5 bpm
Pulse Rate, Actual, Median ([2]; Screening, Safety Population): 78.0 bpm
Pulse Rate, Actual, Min-Max ([2]; Screening, Safety Population): 50-103 bpm
Respiration, Actual, Mean ([2]; Screening, Safety Population): 15.7 bpm
Respiration, Actual, Median ([2]; Screening, Safety Population): 16.0 bpm
Respiration, Actual, Min-Max ([2]; Screening, Safety Population): 12-20 bpm
Systolic Blood Pressure, Actual, Mean ([2]; Screening, Safety Population): 121.2 mmHg
Systolic Blood Pressure, Actual, Median ([2]; Screening, Safety Population): 119.5 mmHg
Systolic Blood Pressure, Actual, Min-Max ([2]; Screening, Safety Population): 96-156 mmHg
Temperature, Actual, Mean ([2]; Screening, Safety Population): 98.04 ° F.
Temperature, Actual, Median ([2]; Screening, Safety Population): 98.00 ° F.
Temperature, Actual, Min-Max ([2]; Screening, Safety Population): 96.9-99.3 ° F.
